The text below walks through data of patent US20240238425A1, “HSD17B13 Inhibitors and/or Degraders” (Pfizer Inc., priority 2022, published 2024).

Counter-ions that a name gives are not always drawn.

The subject of the test is HiBiT-HSD17β13 fusion protein (N-terminal HiBiT-tagged HSD17β13 isoform D) in Huh7 HiBiT-HSD17β13 OE cells. The test can be described thus: Whole-cell Huh7-HSD17B13 HiBiT assay (degrader potency and maximal efficacy, luminescence readout). Format: cell-based, human. Conditions: 24 hour incubation, geometric mean, * = geometric mean for all forms tested (parent and salt forms); for DC50: read-out: Huh7_HIBIT-HSD17β13_DC50 GMean DC50; for Huh7_HIBIT-HSD17β13_DC50 GMean Asymptote Maximum: max. concentration 1 μM. Put shortly:
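Huh7 cells stably overexpressing N-terminal HiBiT-tagged HSD17β13 isoform D, clone matched to primary hepatocyte expression, were exposed to an 11-point, 1 in 3.162 dilution series (top 1 μM final) for 24 h at 37° C. Lytic HiBiT luminescence was normalised to DMSO and parental-cell controls; DC50 from four-parameter logistic fit, with CellTiter-Glo counter screen.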
In general terms: With HiBiT, luminescence reflects the tagged protein that the partner subunit can reach.

In the case of `Cn1c(=O)n(C2CCC(=O)NC2=O)c2ccc(CN3CCN(c4ccc5cn([C@H]6CC[C@H](CNC(=O)c7cc(F)c(O)c(F)c7F)CC6)nc5c4)CC3)cc21` (mixture of isomers) [Example 51, N-{[(1r,4r)-4-{6-[4-({1-[(3RS)-2,6-dioxopiperidin-3-yl]-3-methyl-2-oxo-2,3-dihydro-1H-benzimidazol-5-yl}methyl)piperazin-1-yl]-1H-indazol-2-yl}cyclohexyl]methyl}-2,3,5-trifluoro-4-hydroxybenzamide, trifluoroacetate salt], the DC50 (commonly the concentration at which degradation of the target reaches its halfway point) came out at 2.1 nM and the “Huh7_HIBIT-HSD17β13_DC50 GMean Asymptote Maximum” value turned out to be 73%.
As for `Cn1c(=O)n(C2CCC(=O)NC2=O)c2cccc(CN3CCN(c4ccc5cn([C@H]6CC[C@H](CNC(=O)c7cc(F)c(O)c(F)c7F)CC6)nc5c4)CC3)c21` (mixture of isomers) [Example 52, N-{[(1r,4r)-4-{6-[4-({1-[(3RS)-2,6-dioxopiperidin-3-yl]-3-methyl-2-oxo-2,3-dihydro-1H-benzimidazol-4-yl}methyl)piperazin-1-yl]-2H-indazol-2-yl}cyclohexyl]methyl}-2,3,5-trifluoro-4-hydroxybenzamide, trifluoroacetate salt], the DC50 stood at 1.6 nM and the “Huh7_HIBIT-HSD17β13_DC50 GMean Asymptote Maximum” value is given as 80%.
In the case of `Cn1c(=O)n(C2CCC(=O)NC2=O)c2ccc(CCN3CCN(c4ccc(-c5noc([C@]67CC[C@](CNC(=O)c8cc(F)c(O)c(F)c8F)(CC6)CC7)n5)nn4)CC3)cc21` (mixture of isomers) [Example 55, N-{[4-(3-{6-[4-(2-{1-[(3RS)-2,6-dioxopiperidin-3-yl]-3-methyl-2-oxo-2,3-dihydro-1H-benzimidazol-5-yl}ethyl)piperazin-1-yl]pyridazin-3-yl}-1,2,4-oxadiazol-5-yl)bicyclo[2.2.2]octan-1-yl]methyl}-2,3,5-trifluoro-4-hydroxybenzamide, trifluoroacetate salt], the DC50 was found to be 0.49 nM and the “Huh7_HIBIT-HSD17β13_DC50 GMean Asymptote Maximum” value is given as 82%.
As to `Cn1c(=O)n(C2CCC(=O)NC2=O)c2cccc(CCN3CCN(c4ccc5cn([C@H]6CC[C@H](CNC(=O)c7cc(F)c(O)c(F)c7F)CC6)nc5c4)CC3)c21` (mixture of isomers) [Example 56, N-{[(1r,4r)-4-{6-[4-(2-{1-[(3RS)-2,6-dioxopiperidin-3-yl]-3-methyl-2-oxo-2,3-dihydro-1H-benzimidazol-4-yl}ethyl)piperazin-1-yl]-2H-indazol-2-yl}cyclohexyl]methyl}-2,3,5-trifluoro-4-hydroxybenzamide, trifluoroacetate salt], the DC50 was determined as 0.64 nM and the “Huh7_HIBIT-HSD17β13_DC50 GMean Asymptote Maximum” value turned out to be 82%.
Consider `Cn1c(=O)n(C2CCC(=O)NC2=O)c2ccc(CCN3CCN(c4nccc(-c5nc([C@]67CC[C@](CNC(=O)c8cc(F)c(O)c(F)c8F)(CC6)CC7)no5)n4)CC3)cc21` (mixture of isomers) [Example 60, N-{[4-(5-{2-[4-(2-{1-[(3RS)-2,6-dioxopiperidin-3-yl]-3-methyl-2-oxo-2,3-dihydro-1H-benzimidazol-5-yl}ethyl)piperazin-1-yl]pyrimidin-4-yl}-1,2,4-oxadiazol-3-yl)bicyclo[2.2.2]octan-1-yl]methyl}-2,3,5-trifluoro-4-hydroxybenzamide, trifluoroacetate salt], for which the DC50 turned out to be 0.65 nM and the “Huh7_HIBIT-HSD17β13_DC50 GMean Asymptote Maximum” value came to 78%.
For the compound `Cn1c(=O)n(C2CCC(=O)NC2=O)c2ccc(CCN3CCC(Cc4ccc5cn([C@H]6CC[C@H](CNC(=O)c7cc(F)c(O)c(F)c7F)CC6)nc5c4)C(F)(F)C3)cc21` (mixture of isomers) [Example 64, N-{[(1r,4r)-4-(6-{[1-(2-{1-[(3RS)-2,6-dioxopiperidin-3-yl]-3-methyl-2-oxo-2,3-dihydro-1H-benzimidazol-5-yl}ethyl)-3,3-difluoropiperidin-4-yl]methyl}-2H-indazol-2-yl)cyclohexyl]methyl}-2,3,5-trifluoro-4-hydroxybenzamide, trifluoroacetate salt], the DC50 came to 0.51 nM and the “Huh7_HIBIT-HSD17β13_DC50 GMean Asymptote Maximum” value was determined as 85%.
In the case of `Cn1c(=O)n(C2CCC(=O)NC2=O)c2ccc(CCCN3CC(F)(F)CC4(CCN(c5ccc6cn([C@H]7CC[C@H](CNC(=O)c8cc(F)c(O)c(F)c8F)CC7)nc6c5)C4=O)C3)cc21` (mixture of isomers) [Example 65, N-{[(1r,4r)-4-{6-[7-(3-{1-[(3RS)-2,6-dioxopiperidin-3-yl]-3-methyl-2-oxo-2,3-dihydro-1H-benzimidazol-5-yl}propyl)-9,9-difluoro-1-oxo-2,7-diazaspiro[4.5]decan-2-yl]-2H-indazol-2-yl}cyclohexyl]methyl}-2,3,5-trifluoro-4-hydroxybenzamide, trifluoroacetate salt], the DC50 worked out at 3.8 nM and the “Huh7_HIBIT-HSD17β13_DC50 GMean Asymptote Maximum” value came to 81%.
As for `Cn1c(=O)n(C2CCC(=O)NC2=O)c2ccc(CCCN3CCN(c4ccc(-c5nc([C@]67CC[C@](CNC(=O)c8cc(F)c(O)c(F)c8F)(CC6)CC7)no5)nn4)CC3)cc21` (mixture of isomers) [Example 66, N-{[4-(5-{6-[4-(3-{1-[(3RS)-2,6-dioxopiperidin-3-yl]-3-methyl-2-oxo-2,3-dihydro-1H-benzimidazol-5-yl}propyl)piperazin-1-yl]pyridazin-3-yl}-1,2,4-oxadiazol-3-yl)bicyclo[2.2.2]octan-1-yl]methyl}-2,3,5-trifluoro-4-hydroxybenzamide, trifluoroacetate salt], the DC50 stood at 0.32 nM and the “Huh7_HIBIT-HSD17β13_DC50 GMean Asymptote Maximum” value was found to be 75%.
The matching figures for `Cn1c(=O)n(C2CCC(=O)NC2=O)c2ccc(CCCN3CCN(c4ncc(-c5nc([C@]67CC[C@](CNC(=O)c8cc(F)c(O)c(F)c8F)(CC6)CC7)no5)cn4)CC3)cc21` (mixture of isomers) [Example 67, N-{[4-(5-{2-[4-(3-{1-[(3RS)-2,6-dioxopiperidin-3-yl]-3-methyl-2-oxo-2,3-dihydro-1H-benzimidazol-5-yl}propyl)piperazin-1-yl]pyrimidin-5-yl}-1,2,4-oxadiazol-3-yl)bicyclo[2.2.2]octan-1-yl]methyl}-2,3,5-trifluoro-4-hydroxybenzamide, trifluoroacetate salt]: 0.18 nM and 89%.
On the same counts, the results for `Cn1c(=O)n(C2CCC(=O)NC2=O)c2ccc(CCCN3CCN(c4cnc(-c5nc([C@]67CC[C@](CNC(=O)c8cc(F)c(O)c(F)c8F)(CC6)CC7)no5)cn4)CC3)cc21` (mixture of isomers) [Example 69, N-{[4-(5-{5-[4-(3-{1-[(3RS)-2,6-dioxopiperidin-3-yl]-3-methyl-2-oxo-2,3-dihydro-1H-benzimidazol-5-yl}propyl)piperazin-1-yl]pyrazin-2-yl}-1,2,4-oxadiazol-3-yl)bicyclo[2.2.2]octan-1-yl]methyl}-2,3,5-trifluoro-4-hydroxybenzamide, trifluoroacetate salt] are 0.16 nM and 88%.
With `Cn1c(=O)n(C2CCC(=O)NC2=O)c2ccc(CCN3CCOC4(CCN(c5ccc6cn([C@H]7CC[C@H](CNC(=O)c8cc(F)c(O)c(F)c8F)CC7)nc6c5)CC4)C3)cc21` (mixture of isomers) [Example 74, N-{[(1r,4r)-4-{6-[4-(2-{1-[(3RS)-2,6-dioxopiperidin-3-yl]-3-methyl-2-oxo-2,3-dihydro-1H-benzimidazol-5-yl}ethyl)-1-oxa-4,9-diazaspiro[5.5]undecan-9-yl]-2H-indazol-2-yl}cyclohexyl]methyl}-2,3,5-trifluoro-4-hydroxybenzamide, trifluoroacetate salt], the DC50 is 0.23 nM and the “Huh7_HIBIT-HSD17β13_DC50 GMean Asymptote Maximum” value was 87%.
On the same counts, the results for `Cn1c(=O)n(C2CCC(=O)NC2=O)c2ccc(CCCN3CCOC4(CCN(c5ccc6cn([C@H]7CC[C@H](CNC(=O)c8cc(F)c(O)c(F)c8F)CC7)nc6c5)CC4)C3)cc21` (mixture of isomers) [Example 75, N-{[(1r,4r)-4-{6-[4-(3-{1-[(3RS)-2,6-dioxopiperidin-3-yl]-3-methyl-2-oxo-2,3-dihydro-1H-benzimidazol-5-yl}propyl)-1-oxa-4,9-diazaspiro[5.5]undecan-9-yl]-2H-indazol-2-yl}cyclohexyl]methyl}-2,3,5-trifluoro-4-hydroxybenzamide, trifluoroacetate salt] are 0.19 nM and 88%.
The matching figures for `Cn1c(=O)n(C2CCC(=O)NC2=O)c2ccc(CCCN3CCN(c4cnc(-c5ccc6cn([C@H]7CC[C@H](CNC(=O)c8cc(F)c(O)c(F)c8F)CC7)nc6c5)nc4)CC3)cc21` (mixture of isomers) [Example 76, N-{[(1r,4r)-4-(6-{5-[4-(3-{1-[(3RS)-2,6-dioxopiperidin-3-yl]-3-methyl-2-oxo-2,3-dihydro-1H-benzimidazol-5-yl}propyl)piperazin-1-yl]pyrimidin-2-yl}-2H-indazol-2-yl)cyclohexyl]methyl}-2,3,5-trifluoro-4-hydroxybenzamide, trifluoroacetate salt]: 0.15 nM and 89* %.
The matching figures for `Cn1c(=O)n(C2CCC(=O)NC2=O)c2ccc(CN3CCOC4(CCN(c5ccc6cn([C@H]7CC[C@H](CNC(=O)c8cc(F)c(O)c(F)c8F)CC7)nc6c5)CC4)C3)cc21` (mixture of isomers) [Example 77, N-{[(1r,4r)-4-{6-[4-({1-[(3RS)-2,6-dioxopiperidin-3-yl]-3-methyl-2-oxo-2,3-dihydro-1H-benzimidazol-5-yl}methyl)-1-oxa-4,9-diazaspiro[5.5]undecan-9-yl]-2H-indazol-2-yl}cyclohexyl]methyl}-2,3,5-trifluoro-4-hydroxybenzamide, trifluoroacetate salt]: 0.93 nM and 86%.
